# From PubChem BioAssay (NCI)
#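 Method: 48-hour compound exposure of cells in 96-well plates, five concentrations, linear interpolation of endpoints. Here, GI50 denotes the concentration required for 50% inhibition of growth. Definition used: TGI = concentration required for complete inhibition of growth.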
# Key:
# Assay in all cases: growth of human tumour cells (NCI), 48 h
# 786-0 renal = tested on: 786-0 renal
# A498 renal = tested on: A498 renal
# A549 NSCLC = tested on: A549 NSCLC
# ACHN renal = tested on: ACHN renal
# BT-549 breast = tested on: BT-549 breast
# CAKI-1 renal = tested on: CAKI-1 renal
# CCRF-CEM leukemia = tested on: CCRF-CEM leukemia
# COLO 205 colon = tested on: COLO 205 colon
# DU-145 prostate = tested on: DU-145 prostate
# EKVX NSCLC = tested on: EKVX NSCLC
# HCC-2998 colon = tested on: HCC-2998 colon
# HCT-116 colon = tested on: HCT-116 colon
# HCT-15 colon = tested on: HCT-15 colon
# HL-60(TB) leukemia = tested on: HL-60(TB) leukemia
# HOP-62 NSCLC = tested on: HOP-62 NSCLC
# HOP-92 NSCLC = tested on: HOP-92 NSCLC
# HS 578T breast = tested on: HS 578T breast
# HT29 colon = tested on: HT29 colon
# IGROV1 ovarian = tested on: IGROV1 ovarian
# K-562 leukemia = tested on: K-562 leukemia
# KM12 colon = tested on: KM12 colon
# LOX IMVI melanoma = tested on: LOX IMVI melanoma
# M14 melanoma = tested on: M14 melanoma
# MALME-3M melanoma = tested on: MALME-3M melanoma
# MCF7 breast = tested on: MCF7 breast
# MDA-MB-231 breast = tested on: MDA-MB-231 breast
# MDA-MB-435 = tested on: MDA-MB-435
# MOLT-4 leukemia = tested on: MOLT-4 leukemia
# NCI-H226 lung = tested on: NCI-H226 lung
# NCI-H23 lung = tested on: NCI-H23 lung
# NCI-H460 lung = tested on: NCI-H460 lung
# NCI-H522 lung = tested on: NCI-H522 lung
# NCI/ADR-RES ovarian = tested on: NCI/ADR-RES ovarian
# OVCAR-3 ovarian = tested on: OVCAR-3 ovarian
# OVCAR-4 ovarian = tested on: OVCAR-4 ovarian
# OVCAR-5 ovarian = tested on: OVCAR-5 ovarian
# OVCAR-8 ovarian = tested on: OVCAR-8 ovarian
# PC-3 prostate = tested on: PC-3 prostate
# RPMI-8226 leukemia = tested on: RPMI-8226 leukemia
# RXF 393 renal = tested on: RXF 393 renal
# SF-268 CNS = tested on: SF-268 CNS
# SF-295 CNS = tested on: SF-295 CNS
# SF-539 CNS = tested on: SF-539 CNS
# SK-MEL-2 melanoma = tested on: SK-MEL-2 melanoma
# SK-MEL-28 melanoma = tested on: SK-MEL-28 melanoma
# SK-MEL-5 melanoma = tested on: SK-MEL-5 melanoma
# SK-OV-3 ovarian = tested on: SK-OV-3 ovarian
# SN12C renal = tested on: SN12C renal
# SNB-19 CNS = tested on: SNB-19 CNS
# SNB-75 CNS = tested on: SNB-75 CNS
# SR leukemia = tested on: SR leukemia
# SW-620 colon = tested on: SW-620 colon
# T-47D breast = tested on: T-47D breast
# TK-10 renal = tested on: TK-10 renal
# U251 CNS = tested on: U251 CNS
# UACC-257 melanoma = tested on: UACC-257 melanoma
# UACC-62 melanoma = tested on: UACC-62 melanoma
# UO-31 renal = tested on: UO-31 renal
structure (smiles),measurement,setting,value
Cc1cc(I)cc(CN(C)CCN2CCCC2)c1O,GI50,786-0 renal,21.1 µM
same,TGI,786-0 renal,59.8 µM
same,GI50,A498 renal,32.7 µM
same,TGI,A498 renal,67.2 µM
same,GI50,A549 NSCLC,37.9 µM
same,TGI,A549 NSCLC,> 100 µM
same,GI50,ACHN renal,25.7 µM
same,TGI,ACHN renal,> 84.4 µM
same,GI50,BT-549 breast,18.7 µM
same,TGI,BT-549 breast,48.8 µM
same,GI50,CAKI-1 renal,29.6 µM
same,TGI,CAKI-1 renal,> 93.3 µM
same,GI50,CCRF-CEM leukemia,22.3 µM
same,TGI,CCRF-CEM leukemia,86 µM
same,GI50,COLO 205 colon,19 µM
same,TGI,COLO 205 colon,40.2 µM
same,GI50,DU-145 prostate,32.3 µM
same,TGI,DU-145 prostate,> 100 µM
same,GI50,EKVX NSCLC,41.2 µM
same,TGI,EKVX NSCLC,> 100 µM
same,GI50,HCC-2998 colon,16 µM
same,TGI,HCC-2998 colon,35.9 µM
same,GI50,HCT-116 colon,18.3 µM
same,TGI,HCT-116 colon,> 88.1 µM
same,GI50,HCT-15 colon,24.4 µM
same,TGI,HCT-15 colon,73.7 µM
same,GI50,HL-60(TB) leukemia,10.9 µM
same,TGI,HL-60(TB) leukemia,34.2 µM
same,GI50,HOP-62 NSCLC,24.1 µM
same,TGI,HOP-62 NSCLC,87.5 µM
same,GI50,HOP-92 NSCLC,16.8 µM
same,TGI,HOP-92 NSCLC,68.1 µM
same,GI50,HS 578T breast,31.6 µM
same,TGI,HS 578T breast,67.1 µM
same,GI50,HT29 colon,17.3 µM
same,TGI,HT29 colon,35.5 µM
same,GI50,IGROV1 ovarian,20.9 µM
same,TGI,IGROV1 ovarian,53.8 µM
same,GI50,K-562 leukemia,8.53 µM
same,TGI,K-562 leukemia,26.4 µM
same,GI50,KM12 colon,32.8 µM
same,TGI,KM12 colon,81.3 µM
same,GI50,LOX IMVI melanoma,17.8 µM
same,TGI,LOX IMVI melanoma,35.2 µM
same,GI50,M14 melanoma,15.8 µM
same,TGI,M14 melanoma,34.8 µM
same,GI50,MALME-3M melanoma,24.3 µM
same,TGI,MALME-3M melanoma,44.7 µM
same,GI50,MCF7 breast,24.3 µM
same,TGI,MCF7 breast,53.7 µM
same,GI50,MDA-MB-231 breast,22 µM
same,TGI,MDA-MB-231 breast,67.3 µM
same,GI50,MDA-MB-435,18.3 µM
same,TGI,MDA-MB-435,42.4 µM
same,GI50,MOLT-4 leukemia,3.35 µM
same,TGI,MOLT-4 leukemia,21 µM
same,GI50,NCI-H226 lung,47.9 µM
same,TGI,NCI-H226 lung,> 100 µM
same,GI50,NCI-H23 lung,39 µM
same,TGI,NCI-H23 lung,> 100 µM
same,GI50,NCI-H460 lung,28.3 µM
same,TGI,NCI-H460 lung,85.4 µM
same,GI50,NCI-H522 lung,19.9 µM
same,TGI,NCI-H522 lung,43.4 µM
same,GI50,NCI/ADR-RES ovarian,30.1 µM
same,TGI,NCI/ADR-RES ovarian,> 100 µM
same,GI50,OVCAR-3 ovarian,38.2 µM
same,TGI,OVCAR-3 ovarian,> 100 µM
same,GI50,OVCAR-4 ovarian,38.7 µM
same,TGI,OVCAR-4 ovarian,> 100 µM
same,GI50,OVCAR-5 ovarian,32.8 µM
same,TGI,OVCAR-5 ovarian,> 93.6 µM
same,GI50,OVCAR-8 ovarian,46.7 µM
same,TGI,OVCAR-8 ovarian,> 100 µM
same,GI50,PC-3 prostate,28.2 µM
same,TGI,PC-3 prostate,> 100 µM
same,GI50,RPMI-8226 leukemia,19.2 µM
same,TGI,RPMI-8226 leukemia,46.2 µM
same,GI50,RXF 393 renal,20.7 µM
same,TGI,RXF 393 renal,63.6 µM
same,GI50,SF-268 CNS,32.4 µM
same,TGI,SF-268 CNS,> 88.2 µM
same,GI50,SF-295 CNS,13.1 µM
same,TGI,SF-295 CNS,36.6 µM
same,GI50,SF-539 CNS,21 µM
same,TGI,SF-539 CNS,53.3 µM
same,GI50,SK-MEL-2 melanoma,25.6 µM
same,TGI,SK-MEL-2 melanoma,63.1 µM
same,GI50,SK-MEL-28 melanoma,17.7 µM
same,TGI,SK-MEL-28 melanoma,35.4 µM
same,GI50,SK-MEL-5 melanoma,20.2 µM
same,TGI,SK-MEL-5 melanoma,34.8 µM
same,GI50,SK-OV-3 ovarian,37.9 µM
same,TGI,SK-OV-3 ovarian,> 100 µM
same,GI50,SN12C renal,41.3 µM
same,TGI,SN12C renal,> 100 µM
same,GI50,SNB-19 CNS,34 µM
same,TGI,SNB-19 CNS,> 100 µM
same,GI50,SNB-75 CNS,17.5 µM
same,TGI,SNB-75 CNS,47.2 µM
same,GI50,SR leukemia,1.79 µM
same,TGI,SR leukemia,5.84 µM
same,GI50,SW-620 colon,23.2 µM
same,TGI,SW-620 colon,60 µM
same,GI50,T-47D breast,21.5 µM
same,TGI,T-47D breast,76 µM
same,GI50,TK-10 renal,18.6 µM
same,TGI,TK-10 renal,39.3 µM
same,GI50,U251 CNS,31.5 µM
same,TGI,U251 CNS,> 95.8 µM
same,GI50,UACC-257 melanoma,32.2 µM
same,TGI,UACC-257 melanoma,51.4 µM
same,GI50,UACC-62 melanoma,17.2 µM
same,TGI,UACC-62 melanoma,33.2 µM
same,GI50,UO-31 renal,28.7 µM
same,TGI,UO-31 renal,> 88.9 µM
